{"source": "patent US20100280255A1", "about": "“PROCESS FOR MAKING SUBSTITUTED 2-AMINO-THIAZOLONES” (AMGEN INC., priority 2007, published 2010)", "origin": "cited, not measured here", "key": {"normal subjects": {"system": "normal subjects", "details": "ingestion"}, "healthy human volunteers": {"system": "healthy human volunteers", "details": "healthy human volunteers treated"}}, "data": [{"smiles": "CC1(C)[C@@H](OC(=O)CCC(=O)O)CC[C@]2(C)[C@H]3C(=O)C=C4[C@@H]5C[C@@](C)(C(=O)O)CC[C@]5(C)CC[C@@]4(C)[C@]3(C)CC[C@@H]12", "note": "[carbenoxolone]", "values": [{"measurement": "reduction of the intraocular pressure", "setting": "normal subjects", "result": 20, "unit": "%"}, {"measurement": "hepatic insulin sensitivity", "setting": "healthy human volunteers", "result": "improved"}, {"measurement": "negative effect (of glucocorticoids) on bone nodule formation", "setting": "bone nodule formation", "result": "blocked"}]}]}
